Where two headings read alike, the source gives them in different places.

Among the data in US12258327B2, “5-membered heteroaryl-containing aminopyridine compounds as EGFR inhibitors” (YUHAN CORPORATION, priority 2021, dated 2025) are IC50 values, retold here.

One assay has as its target EGFR del19/C797S (Homo sapiens, UniProt P00533, C797S/DEL746-750). Nature of the assay: Biochemical EGFR kinase assay (Lance Ultra TR-FRET), double mutant del19/C797S. A digest of the protocol:
(§1)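 Enzyme reactions lasted 1 hour at room temperature with test compounds between 0.003 and 10 μM, followed by 10 mM EDTA quench.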
(TR-FRET usually uses a lanthanide donor and a delayed reading to cut background.)

The target of the next assay is EGFR L858R/T790M/C797S (Homo sapiens, UniProt P00533, C797S/L858R/T790M). The assay can be described thus: Biochemical EGFR kinase assay (Lance Ultra TR-FRET), triple mutant L858R/T790M/C797S. A digest of the protocol:
as §1

In another assay the target is EGFR L858R/C797S (Homo sapiens, UniProt P00533, C797S/L858R). Nature of the assay: Biochemical EGFR kinase assay (Lance Ultra TR-FRET), double mutant L858R/C797S. A digest of the protocol:
as §1

The target of a further assay is EGFR del19/T790M/C797S (Homo sapiens, UniProt P00533, C797S/DEL746-750/T790M). Nature of the assay: Biochemical EGFR kinase assay (Lance Ultra TR-FRET), triple mutant del19/T790M/C797S. Put shortly:
as §1

In another assay the target is EGFR wildtype (WT) (Homo sapiens, UniProt P00533). Nature of the assay: Biochemical EGFR kinase assay (Lance Ultra TR-FRET), wildtype. A digest of the protocol:
as §1

Where [1] appears, read: IC50 del19/C797S (nM) 100 μM ATP, 100 μM ATP.
Where [2] appears, read: Km ATP, read-out: IC50 del19/C797S (nM) Km ATP.
[3] abbreviates: IC50 L858R/T790M/C797S (nM) 100 μM ATP, 100 μM ATP.
Where [4] appears, read: Km ATP, read-out: IC50 L858R/T790M/C797S (nM) Km ATP.
[5] abbreviates: IC50 L858R/C797S (nM) 100 μM ATP, 100 μM ATP.
The mark [6] stands for this setting: Km ATP, read-out: IC50 L858R/C797S (nM) Km ATP.
[7] abbreviates: IC50 del19/T790M/C797S (nM) 100 μM ATP, 100 μM ATP.
Where [8] appears, read: Km ATP, read-out: IC50 del19/T790M/C797S (nM) Km ATP.
The mark [9] stands for this setting: IC50 WT (nM) 100 μM ATP, 100 μM ATP.
[10] abbreviates: Km ATP, read-out: IC50 WT (nM) Km ATP.
Where [11] appears, read: Km ATP, read-out: IC50 del19/C797S, Km ATP.
Setting [12] is: Km ATP, read-out: IC50 L858R/T790M/C797S, Km ATP.
[13] abbreviates: Km ATP, read-out: IC50 L858R/C797S, Km ATP.
Setting [14] is: Km ATP, read-out: IC50 del19/T790M/C797S, Km ATP.
The mark [15] stands for this setting: Km ATP, read-out: IC50 WT, Km ATP.

EGFR L858R/C797S, sequence (P00533 25-1210 C797S/L858R): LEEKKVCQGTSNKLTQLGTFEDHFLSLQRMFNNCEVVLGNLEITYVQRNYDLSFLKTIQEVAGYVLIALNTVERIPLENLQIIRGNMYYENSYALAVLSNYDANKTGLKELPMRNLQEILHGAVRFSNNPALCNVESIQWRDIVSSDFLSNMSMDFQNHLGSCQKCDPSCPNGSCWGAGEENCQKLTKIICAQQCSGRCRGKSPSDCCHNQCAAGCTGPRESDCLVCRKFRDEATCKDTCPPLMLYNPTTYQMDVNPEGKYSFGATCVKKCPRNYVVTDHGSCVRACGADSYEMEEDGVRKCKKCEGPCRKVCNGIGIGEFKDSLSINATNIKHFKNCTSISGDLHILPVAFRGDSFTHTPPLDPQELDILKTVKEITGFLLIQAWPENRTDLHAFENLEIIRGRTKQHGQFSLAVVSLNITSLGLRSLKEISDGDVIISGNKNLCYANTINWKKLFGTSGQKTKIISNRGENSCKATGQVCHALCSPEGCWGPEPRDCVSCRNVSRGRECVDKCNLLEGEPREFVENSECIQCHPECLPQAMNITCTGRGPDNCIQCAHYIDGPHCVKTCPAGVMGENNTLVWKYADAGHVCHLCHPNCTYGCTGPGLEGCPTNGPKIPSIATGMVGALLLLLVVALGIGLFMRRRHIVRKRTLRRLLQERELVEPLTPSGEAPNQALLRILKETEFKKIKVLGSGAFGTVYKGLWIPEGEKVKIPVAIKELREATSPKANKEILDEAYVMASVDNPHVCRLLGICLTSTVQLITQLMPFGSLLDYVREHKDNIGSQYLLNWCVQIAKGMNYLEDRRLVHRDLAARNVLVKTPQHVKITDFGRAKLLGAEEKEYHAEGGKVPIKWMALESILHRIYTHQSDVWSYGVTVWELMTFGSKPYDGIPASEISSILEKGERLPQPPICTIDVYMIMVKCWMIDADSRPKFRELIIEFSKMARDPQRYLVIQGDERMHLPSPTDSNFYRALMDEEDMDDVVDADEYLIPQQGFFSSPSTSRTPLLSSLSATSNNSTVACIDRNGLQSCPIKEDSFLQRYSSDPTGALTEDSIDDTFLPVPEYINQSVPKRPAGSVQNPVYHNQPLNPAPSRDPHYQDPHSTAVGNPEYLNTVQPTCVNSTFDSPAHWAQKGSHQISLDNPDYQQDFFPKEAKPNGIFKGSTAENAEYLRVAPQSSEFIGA
EGFR L858R/T790M/C797S, sequence (P00533 25-1210 T790M/C797S/L858R): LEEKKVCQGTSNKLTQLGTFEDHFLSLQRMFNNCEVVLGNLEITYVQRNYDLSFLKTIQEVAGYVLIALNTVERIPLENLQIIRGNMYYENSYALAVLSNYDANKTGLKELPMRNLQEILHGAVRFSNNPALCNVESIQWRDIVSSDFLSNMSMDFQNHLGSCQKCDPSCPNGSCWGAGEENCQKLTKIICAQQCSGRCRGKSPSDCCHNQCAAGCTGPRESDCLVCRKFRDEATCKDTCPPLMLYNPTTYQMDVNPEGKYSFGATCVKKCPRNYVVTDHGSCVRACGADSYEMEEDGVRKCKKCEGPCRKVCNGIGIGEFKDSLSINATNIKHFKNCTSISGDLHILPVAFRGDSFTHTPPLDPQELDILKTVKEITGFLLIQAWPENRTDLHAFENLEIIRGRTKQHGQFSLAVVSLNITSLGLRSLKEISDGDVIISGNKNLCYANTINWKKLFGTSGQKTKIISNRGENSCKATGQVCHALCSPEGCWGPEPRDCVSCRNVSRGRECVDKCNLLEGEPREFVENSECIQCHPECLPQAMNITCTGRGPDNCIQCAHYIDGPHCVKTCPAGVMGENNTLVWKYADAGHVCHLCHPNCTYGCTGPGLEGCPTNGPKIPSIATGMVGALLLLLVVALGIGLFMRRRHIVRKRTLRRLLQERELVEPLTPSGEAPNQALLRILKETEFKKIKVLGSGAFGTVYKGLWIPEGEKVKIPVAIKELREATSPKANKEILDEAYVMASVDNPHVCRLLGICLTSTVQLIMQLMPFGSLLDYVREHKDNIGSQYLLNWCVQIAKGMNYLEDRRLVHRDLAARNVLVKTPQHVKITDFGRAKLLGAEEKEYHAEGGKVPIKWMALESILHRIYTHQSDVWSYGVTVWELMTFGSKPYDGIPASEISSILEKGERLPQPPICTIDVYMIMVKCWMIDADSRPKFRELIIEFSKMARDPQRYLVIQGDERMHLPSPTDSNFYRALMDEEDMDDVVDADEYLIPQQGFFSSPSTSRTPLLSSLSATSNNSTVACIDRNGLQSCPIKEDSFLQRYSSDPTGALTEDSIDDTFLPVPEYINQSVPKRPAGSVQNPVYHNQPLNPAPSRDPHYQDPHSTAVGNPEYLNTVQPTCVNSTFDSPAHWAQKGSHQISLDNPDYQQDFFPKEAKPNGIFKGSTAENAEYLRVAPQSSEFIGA
EGFR wildtype (WT), sequence (P00533 25-1210): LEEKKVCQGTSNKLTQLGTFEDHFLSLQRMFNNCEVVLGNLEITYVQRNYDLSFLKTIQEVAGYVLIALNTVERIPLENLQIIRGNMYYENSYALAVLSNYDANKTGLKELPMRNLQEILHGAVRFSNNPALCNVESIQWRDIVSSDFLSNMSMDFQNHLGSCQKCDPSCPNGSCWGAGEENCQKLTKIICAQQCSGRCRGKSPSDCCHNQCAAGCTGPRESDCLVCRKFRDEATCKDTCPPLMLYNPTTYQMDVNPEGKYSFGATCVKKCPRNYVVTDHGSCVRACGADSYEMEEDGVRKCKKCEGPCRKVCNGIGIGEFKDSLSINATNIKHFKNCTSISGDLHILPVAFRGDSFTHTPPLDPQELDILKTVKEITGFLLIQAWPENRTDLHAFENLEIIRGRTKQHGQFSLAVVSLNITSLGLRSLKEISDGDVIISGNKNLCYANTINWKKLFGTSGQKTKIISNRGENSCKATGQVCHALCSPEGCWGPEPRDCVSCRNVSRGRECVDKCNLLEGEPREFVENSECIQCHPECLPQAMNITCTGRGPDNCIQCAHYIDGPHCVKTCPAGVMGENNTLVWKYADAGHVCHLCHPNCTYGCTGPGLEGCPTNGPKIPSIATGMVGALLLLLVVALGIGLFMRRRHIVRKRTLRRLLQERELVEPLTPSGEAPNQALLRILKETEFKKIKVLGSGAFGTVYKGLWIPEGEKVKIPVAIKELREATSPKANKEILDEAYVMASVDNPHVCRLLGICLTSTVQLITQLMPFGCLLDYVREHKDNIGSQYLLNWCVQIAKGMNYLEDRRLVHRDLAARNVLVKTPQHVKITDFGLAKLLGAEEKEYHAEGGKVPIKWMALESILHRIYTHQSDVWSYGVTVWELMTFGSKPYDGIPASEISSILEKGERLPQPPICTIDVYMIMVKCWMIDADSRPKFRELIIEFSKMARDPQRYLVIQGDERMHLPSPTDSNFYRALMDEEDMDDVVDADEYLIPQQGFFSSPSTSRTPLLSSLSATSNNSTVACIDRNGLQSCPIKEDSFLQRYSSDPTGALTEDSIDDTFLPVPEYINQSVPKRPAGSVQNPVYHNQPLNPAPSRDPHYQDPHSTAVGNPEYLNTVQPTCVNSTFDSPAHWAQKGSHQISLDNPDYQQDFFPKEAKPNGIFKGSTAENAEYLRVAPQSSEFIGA
EGFR del19/C797S, sequence (P00533 with tags, fused parts or gaps DEL746-750/C797S): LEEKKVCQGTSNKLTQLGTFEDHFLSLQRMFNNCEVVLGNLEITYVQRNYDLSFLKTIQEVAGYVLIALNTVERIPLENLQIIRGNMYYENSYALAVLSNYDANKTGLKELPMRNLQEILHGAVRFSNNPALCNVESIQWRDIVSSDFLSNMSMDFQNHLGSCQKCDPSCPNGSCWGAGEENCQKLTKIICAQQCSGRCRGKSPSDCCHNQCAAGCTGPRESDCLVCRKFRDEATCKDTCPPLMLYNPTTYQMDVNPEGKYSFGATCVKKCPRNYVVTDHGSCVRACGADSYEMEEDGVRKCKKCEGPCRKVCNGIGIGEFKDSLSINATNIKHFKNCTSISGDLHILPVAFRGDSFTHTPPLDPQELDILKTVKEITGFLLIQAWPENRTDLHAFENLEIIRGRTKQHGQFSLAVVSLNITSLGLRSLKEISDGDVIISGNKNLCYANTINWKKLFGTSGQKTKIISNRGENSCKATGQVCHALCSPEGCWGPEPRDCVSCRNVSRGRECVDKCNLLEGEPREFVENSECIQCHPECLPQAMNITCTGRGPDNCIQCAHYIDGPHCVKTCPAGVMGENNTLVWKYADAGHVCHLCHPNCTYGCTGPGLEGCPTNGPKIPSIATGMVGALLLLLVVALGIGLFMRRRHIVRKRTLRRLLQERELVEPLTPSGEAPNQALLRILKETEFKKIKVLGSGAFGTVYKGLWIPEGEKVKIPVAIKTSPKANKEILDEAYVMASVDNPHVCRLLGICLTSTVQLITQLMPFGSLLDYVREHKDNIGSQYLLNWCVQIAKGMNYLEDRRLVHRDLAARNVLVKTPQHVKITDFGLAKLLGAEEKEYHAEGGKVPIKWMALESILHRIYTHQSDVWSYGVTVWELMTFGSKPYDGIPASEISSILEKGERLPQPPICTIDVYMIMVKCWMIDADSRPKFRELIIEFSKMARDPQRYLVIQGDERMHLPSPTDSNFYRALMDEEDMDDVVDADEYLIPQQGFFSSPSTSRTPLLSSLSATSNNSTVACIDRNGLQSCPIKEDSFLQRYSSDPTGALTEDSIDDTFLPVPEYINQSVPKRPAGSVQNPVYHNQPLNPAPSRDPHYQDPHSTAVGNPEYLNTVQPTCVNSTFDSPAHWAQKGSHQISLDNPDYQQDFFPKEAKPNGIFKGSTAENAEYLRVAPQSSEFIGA

With `Cc1cc(-c2cnc(Nc3ccnc(-c4cnn(S(=O)(=O)C5CC5)c4)n3)cc2N[C@H]2CC[C@@H](CO)CC2)nn1C` [Example 280, ((1s,4s)-4-((2-((2-(1-(Cyclopropylsulfonyl)-1H-pyrazol-4-yl)pyrimidin-4-yl)amino)-5-(1,5-dimethyl-1H-pyrazol-3-yl)pyridin-4-yl)amino)cyclohexyl)methanol], the IC50 on EGFR del19/C797S (setting [1]) was 0.7 nM; at EGFR del19/C797S (setting [2]) it was 0.2 nM; against EGFR L858R/T790M/C797S (setting [3]), 0.7 nM; at EGFR L858R/T790M/C797S (setting [4]) it was 1 nM; against EGFR L858R/C797S (setting [5]), 3.8 nM; on EGFR L858R/C797S (setting [6]), 0.3 nM. In addition, the IC50 is 1 nM against EGFR del19/T790M/C797S (setting [7]), 0.8 nM at EGFR del19/T790M/C797S (setting [8]), 51.9 nM against EGFR wildtype (WT) (setting [9]) and 0.4 nM on EGFR wildtype (WT) (setting [10]).

Turning to `O=S(=O)(C1CC1)n1cc(-c2nccc(Nc3cc(N[C@H]4CC[C@@H](NCC(F)F)CC4)c(-c4csc(C(F)(F)F)n4)cn3)n2)cn1` [Example 53, N^2-(2-(1-(Cyclopropylsulfonyl)-1H-pyrazol-4-yl)pyrimidin-4-yl)-N^4-((1s,4s)-4-((2,2-difluoroethyl)amino)cyclohexyl)-5-(2-(trifluoromethyl)thiazol-4-yl)pyridine-2,4-diamine], the IC50 was 14.2 nM at EGFR del19/C797S (setting [1]); 7.7 nM on EGFR del19/C797S (setting [2]); 11.3 nM at EGFR L858R/T790M/C797S (setting [3]); 2.9 nM at EGFR L858R/T790M/C797S (setting [4]); 264 nM against EGFR L858R/C797S (setting [5]); 15 nM on EGFR L858R/C797S (setting [6]). Also, the IC50 against EGFR del19/T790M/C797S (setting [7]) is 9.4 nM; on EGFR del19/T790M/C797S (setting [8]) it was 8.5 nM; against EGFR wildtype (WT) (setting [9]), above 10000 nM; on EGFR wildtype (WT) (setting [10]), 105 nM.

With `CCC(C)Nc1cc(Nc2ccnc(-c3cnn(S(=O)(=O)C4CC4)c3)n2)ncc1-c1ccn(CC(F)F)n1` (stereo not drawn) [Example 250, N^4-(sec-Butyl)-N^2-(2-(1-(cyclopropylsulfonyl)-1H-pyrazol-4-yl)pyrimidin-4-yl)-5-(1-(2,2-difluoroethyl)-1H-pyrazol-3-yl)pyridine-2,4-diamine], the IC50 stood at 63.8 nM at EGFR del19/C797S (setting [2]); 0.9 nM on EGFR L858R/T790M/C797S (setting [4]); 4.4 nM at EGFR L858R/C797S (setting [6]); 0.9 nM on EGFR del19/T790M/C797S (setting [8]); 56.1 nM at EGFR wildtype (WT) (setting [10]).

In the case of `CN(C)CCCn1ccc(-c2cnc(Nc3ccnc(-c4cnn(S(=O)(=O)C5CC5)c4)n3)cc2N[C@H]2CC[C@@H](C(C)(C)O)CC2)n1` [Example 278, 2-((1s,4s)-4-((2-((2-(1-(Cyclopropylsulfonyl)-1H-pyrazol-4-yl)pyrimidin-4-yl)amino)-5-(1-(3-(dimethylamino)propyl)-1H-pyrazol-3-yl)pyridin-4-yl)amino)cyclohexyl)propan-2-ol], the IC50 against EGFR del19/C797S (setting [1]) was 1 nM; on EGFR del19/C797S (setting [2]), 0.6 nM; against EGFR L858R/T790M/C797S (setting [3]) it was 0.3 nM; at EGFR L858R/T790M/C797S (setting [4]), 0.1 nM; at EGFR L858R/C797S (setting [5]), 3.4 nM; at EGFR L858R/C797S (setting [6]) it was 0.3 nM. Also, the IC50 turned out to be 0.4 nM against EGFR del19/T790M/C797S (setting [7]), 0.6 nM on EGFR del19/T790M/C797S (setting [8]), 669 nM on EGFR wildtype (WT) (setting [9]) and 1.2 nM at EGFR wildtype (WT) (setting [10]).

`FC(F)Cn1cc(-c2nccc(Nc3cc(N[C@H]4CC[C@@H](F)CC4)c(-c4ccn(CC(F)(F)F)n4)cn3)n2)cn1` [Example 339, N^2-(2-(1-(2,2-Difluoroethyl)-1H-pyrazol-4-yl)pyrimidin-4-yl)-N^4-((1s,4s)-4-fluorocyclohexyl)-5-(1-(2,2,2-trifluoroethyl)-1H-pyrazol-3-yl)pyridine-2,4-diamine]: the IC50 stood at 1070 nM on EGFR del19/C797S (setting [11]); 0.4 nM on EGFR L858R/T790M/C797S (setting [12]); 113 nM on EGFR L858R/C797S (setting [13]); 2.9 nM on EGFR del19/T790M/C797S (setting [14]); 424 nM on EGFR wildtype (WT) (setting [15]).

For the molecule `C[C@]1(O)CC[C@@H](Nc2cc(Nc3nc(-c4cnn(S(=O)(=O)C5CC5)c4)ncc3F)ncc2-c2ccn(CC(F)F)n2)CC1` [Example 345, (1s,4s)-4-((2-((2-(1-(Cyclopropylsulfonyl)-1H-pyrazol-4-yl)-5-fluoropyrimidin-4-yl)amino)-5-(1-(2,2-difluoroethyl)-1H-pyrazol-3-yl)pyridin-4-yl)amino)-1-methylcyclohexan-1-ol], the IC50 worked out at 4.6 nM at EGFR del19/C797S (setting [11]); 0.9 nM on EGFR L858R/T790M/C797S (setting [12]); 0.3 nM at EGFR L858R/C797S (setting [13]); 0.4 nM at EGFR del19/T790M/C797S (setting [14]); 22.2 nM on EGFR wildtype (WT) (setting [15]).
